Here are results for 5 compounds from patent EP0452101B1, “Spiro bridged and unbridged heterocyclic compounds” (ISRAEL INSTITUTE FOR BIOLOGICAL RESEARCH, priority 1990, dated 1991).

One data set relates to scopolamine-treated rats. The data set can be described thus: Passive avoidance (PA) in scopolamine-treated rats. In kind it is in vivo, Sprague-Dawley rats. The procedure:
Naive male Sprague-Dawley rats, three months old (obtained from Charles River Breeding, U.K.), were used (weighing 200-300 g.). The passive avoidance (PA) test is according to Fisher et al, Neurosci. Lett. 102: 325 (1989), except that in these rats amnesia was induced by scopolamine.
Eight groups of 17-20 naive rats were used. Each group was divided into two subgroups of 7-10 rats each: subgroup 1 was injected with scopolamine HBr (0.5 mg./kg. in saline, s.c., 15 min. before the shock) and subgroup 2 was injected with saline (1 ml./kg., s.c., 15 min. before the shock). Seven of the groups were treated within one minute after the shock with one of the following doses of the tested compound: 0.1, 0.5, 1, 3, 5, 8, 10 mg./kg. (in saline, i.p.) and one group received saline (1 ml./kg., i.p.).
Eight groups of 18-20 naive rats each were used. Each group was divided into two subgroups of 9-10 rats each: subgroup 1 was injected with scopolamine HBr (0.5 mg./kg. in saline, s.c., 15 min. before the shock) and subgroup 2 was injected with saline (1 ml./kg., s.c., 15 min. before the shock). Seven of the groups were treated, within one minute after the shock, with one of the following doses of AF125(N): 0.1, 0.5, 1, 3, 5, 8 or 10 mg./kg. (in saline, i.p.) and one group received saline (1 ml./kg., i.p.).

Data set [1] has as its system Male white mice of the CD-1 strain. Kind of data set: Pharmacodynamic profile and general toxicity, Part B (signs, mortality, LD50). Type of data set: in vivo. Also on record: key to Altered spontaneous motor activity (Mot): increased (inc); decreased (dec); key to Piloerection (Pil) / Hypothermia (Hyp) / Salivation (Sal) / Lacrimation (Lac) / Diarrhea (Dia) / Mydriasis (Myd): sli = slight; mod = moderate; sev = severe. The settings on record: Table 10. The text has this:
Male white mice of the CD-1 strain (Charles River, UK), within the body weight range of 18-26 g, were used throughout this study, carried out on AF123, AF125 and AF125(N).
Furthermore, these initial trials clearly established that the major signs of reactions to treatment consisted primarily of signs characteristic for potential cholinomimetic activity of the test material, such as tremors, salivation, lacrimation, diarrhea, analgesia, hypothermia and vasodilation. […]

In another data set the target is T1, M2 muscarinic receptors (Rattus norvegicus, UniProt P10980).
T1 construct: displacing from rat brain homogenates, cerebellum or frontal cortex; from tissue; host or cells: rat cerebellum homogenates
T1 sequence (P10980 1-466): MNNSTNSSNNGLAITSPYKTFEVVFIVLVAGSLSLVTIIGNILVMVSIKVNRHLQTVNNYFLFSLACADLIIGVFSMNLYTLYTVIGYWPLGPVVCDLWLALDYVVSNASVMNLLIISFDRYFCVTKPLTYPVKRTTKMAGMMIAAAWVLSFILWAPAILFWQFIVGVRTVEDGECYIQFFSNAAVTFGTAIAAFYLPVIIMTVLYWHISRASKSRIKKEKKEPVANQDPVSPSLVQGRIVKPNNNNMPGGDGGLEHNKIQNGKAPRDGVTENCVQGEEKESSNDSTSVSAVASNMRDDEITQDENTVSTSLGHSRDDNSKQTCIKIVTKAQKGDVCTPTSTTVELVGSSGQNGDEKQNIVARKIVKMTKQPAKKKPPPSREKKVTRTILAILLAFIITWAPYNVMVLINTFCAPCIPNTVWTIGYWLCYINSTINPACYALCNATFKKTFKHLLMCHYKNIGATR
Kind of data set: Displacement of 3H-QNB from rat cerebellum, 50 mM phosphate buffer. Type of data set: binding. In general terms: Loss of bound radioactivity is the signal in a displacement assay; it reports binding, not function.

Data set [2] deals with T2, M1 muscarinic receptor (Rattus norvegicus, UniProt P08482).
T2 sequence (P08482 1-460): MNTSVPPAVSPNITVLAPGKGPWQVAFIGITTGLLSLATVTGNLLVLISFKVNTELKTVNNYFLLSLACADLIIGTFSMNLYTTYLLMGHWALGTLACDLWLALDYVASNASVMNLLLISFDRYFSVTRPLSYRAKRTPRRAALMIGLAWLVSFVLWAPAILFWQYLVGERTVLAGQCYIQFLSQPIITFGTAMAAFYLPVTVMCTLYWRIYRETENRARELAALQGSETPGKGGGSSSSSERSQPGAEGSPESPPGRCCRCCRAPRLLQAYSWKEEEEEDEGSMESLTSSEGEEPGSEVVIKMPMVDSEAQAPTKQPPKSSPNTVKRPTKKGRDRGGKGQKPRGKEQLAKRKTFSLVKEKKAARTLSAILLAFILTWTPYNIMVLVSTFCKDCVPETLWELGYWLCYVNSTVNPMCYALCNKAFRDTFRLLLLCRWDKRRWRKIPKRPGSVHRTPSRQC
The data set can be described thus: Displacement of 3H-PZ from rat cerebral cortex, 10 mM phosphate buffer. In kind it is binding. Also noted: from tissue; host or cells: rat cerebral cortex homogenates. The settings on record: for RATIOS c:a: KH cerebellum (3H-QNB) : KH cortex (3H-PZ).

For data set [3], the target named is T2, M1 muscarinic receptor. Kind of data set: Displacement of 3H-QNB from rat cerebral cortex, 50 mM phosphate buffer. In kind it is binding. The settings on record: for RATIOS c:a: KH2 cerebellum : KH1 cortex (3H-QNB); for % H1 / Ki: cortex, Table 5; for Ki: read-out: 3H-QNB-Binding KH1 (a).
The subject of a further data set is muscarinic receptors. The data set can be described thus: (-)3H-QNB binding to rat cerebral cortex homogenates with and without Cu++ treatment. The settings on record: for Ki: read-out: KL.
Where [4] appears, read: post-shock AF125(N) 0.1 mg/kg i.p., pre-shock Scopolamine.
[5] abbreviates: post-shock AF125(N) 0.1 mg/kg i.p., pre-shock saline.
[6] abbreviates: post-shock AF125(N) 0.5 mg/kg i.p., pre-shock Scopolamine, 0.5 mg/kg.
Where [7] appears, read: post-shock AF125(N) 0.5 mg/kg i.p., pre-shock saline.
[8] abbreviates: post-shock AF125(N) 1.0 mg/kg i.p., pre-shock Scopolamine.
[9] abbreviates: post-shock AF125(N) 1.0 mg/kg i.p., pre-shock saline.
Setting [10] is: post-shock AF125(N) 3.0 mg/kg i.p., pre-shock Scopolamine.
[11] abbreviates: post-shock AF125(N) 3.0 mg/kg i.p., pre-shock saline.
[12] abbreviates: post-shock AF125(N) 5.0 mg/kg i.p., pre-shock Scopolamine.
Where [13] appears, read: post-shock AF125(N) 5.0 mg/kg i.p., pre-shock saline, 5 mg/kg.
Setting [14] is: post-shock AF125(N) 8.0 mg/kg i.p., pre-shock Scopolamine.
[15] abbreviates: post-shock AF125(N) 8.0 mg/kg i.p., pre-shock saline.
Setting [16] is: post-shock AF125(N) 10.0 mg/kg i.p., pre-shock Scopolamine.
[17] abbreviates: post-shock AF125(N) 10.0 mg/kg i.p., pre-shock saline.
The mark [18] stands for this setting: 20 mg/kg i.v., animals affected/treated.
[19] abbreviates: cortex, Table 4, read-out: 3H-PZ-Binding KH (a).
The mark [20] stands for this setting: with Cu++ pretreatment (100 µM, 30 minutes).

Values joined by “and” are separate entries in the source; they are usually repeats but may differ in a detail not shown here. Identical values can stand only once. Like-named read-outs stand apart in the source and are kept apart here.

`NC1=NCC2(CN3CCC2CC3)O1` (centres unmarked) [AF125(N), 2-Amino-spiro(1,3-oxazoline-5,3')quinuclidine]: the “doses with significant enhancing effect on retention latency” value in the data set on scopolamine-treated rats (i.p., scopolamine-treated rats) was 0.5 mg/kg. Moreover, the “Initial latency, Mean” value in the data set with scopolamine-treated rats (setting [4]) is 22.3 s; in the data set on scopolamine-treated rats (setting [5]) it was 21.0 s; in the data set with scopolamine-treated rats (setting [6]), 62.9 ± 17.4 s and 62.9 s; in the data set with scopolamine-treated rats (setting [7]), 28.1 s; in the data set on scopolamine-treated rats (setting [8]), 29.1 s; in the data set on scopolamine-treated rats (setting [9]), 22.0 s. The “Initial latency, Mean” value with scopolamine-treated rats (setting [10]) is 23.1 s; in the data set on scopolamine-treated rats (setting [11]) it was 44.1 s; with scopolamine-treated rats (setting [12]), 24.6 s; in the data set on scopolamine-treated rats (setting [13]), 65.1 ± 18.5 s and 65.1 s; with scopolamine-treated rats (setting [14]), 16.3 s; in the data set with scopolamine-treated rats (setting [15]) it was 19.3 s. For the same compound, the “Initial latency, Mean” value with scopolamine-treated rats (setting [16]) was 21.5 s; in the data set on scopolamine-treated rats (setting [17]), 4.9 s. Also, the “Retention latency, Mean” value in the data set on scopolamine-treated rats (setting [4]) is 199.7 s; in the data set on scopolamine-treated rats (setting [5]) it was 554.7 s; in the data set on scopolamine-treated rats (setting [6]) it was 332.7±80.9 sec. and 332.7* sec; in the data set with scopolamine-treated rats (setting [7]), 600.0 s; in the data set with scopolamine-treated rats (setting [8]), 114.8 s; in the data set with scopolamine-treated rats (setting [9]) it was 448.9 s. Also, the “Retention latency, Mean” value was 243.4 s in the data set on scopolamine-treated rats (setting [10]); 500.1 s in the data set with scopolamine-treated rats (setting [11]); 181.6 s in the data set with scopolamine-treated rats (setting [12]); 290.3 ± 52.1 s and 290.3 s in the data set with scopolamine-treated rats (setting [13]); 210.2 s with scopolamine-treated rats (setting [14]); 552.0 s in the data set on scopolamine-treated rats (setting [15]). For the same compound, the results for the “Retention latency, Mean” value with scopolamine-treated rats (setting [16]) and in the data set with scopolamine-treated rats (setting [17]) were 129.7 s and 417.5 s, respectively. The figures for the “Altered spontaneous motor activity (Mot)” value in data set [1] (20 mg/kg i.v.) and in data set [1] (200 mg/kg p.os) were “dec” and “inc”, respectively. Further, the Mortality no. was 0/5 in data set [1] (20 mg/kg i.v.), 5/5 in data set [1] (50 mg/kg i.v.), 5/5 in data set [1] (100 mg/kg i.v.) and 0/5 in data set [1] (200 mg/kg p.os). For the same compound, the “Mydriasis (Myd)” value in data set [1] (20 mg/kg i.v.) and in data set [1] (200 mg/kg p.os) was “sli” each time. The “Salivation (Sal)” value in data set [1] (20 mg/kg i.v.) is “sli”. Besides, the “Respiratory distress (Res)” value in data set [1] (setting [18]) is recorded as 4/5. In addition, the “Tremors (Tre)” value in data set [1] (setting [18]) is on record as 3/5. For the same compound, the Mortality time entry in data set [1] (50 mg/kg i.v.) and in data set [1] (100 mg/kg i.v.) was “immed” each time. Besides, the “% H” value on M2 muscarinic receptors (cerebellum, Table 4) is recorded as 100%; at M1 muscarinic receptor [2] (cortex, Table 4), 28%. Also, on M2 muscarinic receptors (cerebellum, Table 5), the “% H2” value is given as 100%. For the same compound, the Ki at M2 muscarinic receptors (read-out: 3H-QNB-Binding KH2 (c)) came to 50000 nM; at M2 muscarinic receptors (read-out: 3H-QNB-Binding KH (c)), 5000 nM; on M1 muscarinic receptor [2] (setting [19]), 600 nM; on M1 muscarinic receptor [2] (cortex, Table 4, read-out: 3H-PZ-Binding KL (b)), 3000 nM; on M1 muscarinic receptor [3], 112000 nM. The “RATIOS c:a” value stood at 83 on M1 muscarinic receptor [2] and 0.4 on M1 muscarinic receptor [3]. On M1 muscarinic receptor [2] (cortex, Table 4), the “%L” value amounted to 72%. Also, on M1 muscarinic receptor [3], the “% H1” value turned out to be 100%.

On to `c1ccc(C2=NCC3(CN4CCC3CC4)O2)cc1` (centres unmarked) [AF125(Ph), 2-Phenyl-spiro(1,3-oxazoline-5,3')quinuclidine], for which the “% H” value at M2 muscarinic receptors (cerebellum, Table 4) amounted to 100%; on M1 muscarinic receptor [2] (cortex, Table 4), 100%. Besides, the Ki is 1370 nM at M2 muscarinic receptors (cerebellum, Table 4, read-out: 3H-QNB-Binding KH (c)); 1370 nM at M2 muscarinic receptors (cerebellum, Table 5, read-out: 3H-QNB-Binding KH2 (c)); 80 nM at M1 muscarinic receptor [2] (setting [19]); 800 nM on M1 muscarinic receptor [3]. Also, on M2 muscarinic receptors (cerebellum, Table 5), the “% H2” value worked out at 100%. Further, the “RATIOS c:a” value at M1 muscarinic receptor [2] is 17.1; on M1 muscarinic receptor [3], 1.7. For the same compound, the “% H1” value at M1 muscarinic receptor [3] was 100%.

Take `CN1[C@@H]2CC[C@H]1C[C@@H](OC(=O)C(CO)c1ccccc1)C2` (some centres unmarked) [Atropine]: the “%H (% of high affinity state)” value in the data set with muscarinic receptors is 0%.

Regarding `CN1CCN(CC(=O)N2c3ccccc3C(=O)Nc3cccnc32)CC1` [Pirenzepine], the “%H (% of high affinity state)” value with muscarinic receptors (setting [20]) worked out at 64±6%; in the data set on muscarinic receptors (without pretreatment), 72±3%.

`CN1[C@@H]2C[C@@H](OC(=O)[C@H](CO)c3ccccc3)C[C@H]1[C@@H]1O[C@@H]12` [Scopolamine]: the “%H (% of high affinity state)” value with muscarinic receptors (setting [20]) and with muscarinic receptors (without pretreatment) was 0% each time. In addition, the Ki at muscarinic receptors (with Cu++ pretreatment) worked out at 0.1 ± 0.005 nM; on muscarinic receptors (without pretreatment), 0.09 ± 0.004 nM.
